In patent US6214537A, “Synthetic peptides and mixtures thereof for detecting HIV antibodies” (Biochem Immunosystems, Inc., priority 1988, dated 2001):

Key:
[1] = test system: HIV-1 antibodies; settings: cited from earlier work; for sensitivity: HIV-1 seropositive samples, literature
[2] = test system: HIV-2 antibodies; experiment: ELISA, single peptides identifying HIV-2 positive sera; type: binding, human; settings: 5 tested
Description: A preferred convenient and classical technique for the determination of antibodies against AIDS virus using a peptide or a peptide mixture of the present invention is an enzyme-linked immunosorbent assay (ELISA). According to this test a peptide or a peptide mixture of the present invention is adsorbed onto the wells of a microtiter plate. The wells are then treated with sera to be tested. After washing, anti-human IgG labeled with peroxidase is added to the wells. The determination of the peroxidase is performed with a corresponding substrate, e.g. with o-phenylene diamine. Also in this procedure the peroxidase can be exchanged by another label, e.g. by a radioactive or fluorescence label.
The cyclic peptides of the present invention and their mixtures with one or more linear peptides were tested in accordance with the ELISA test described previously against a variety of sera, some of which were confirmed positive and others which were confirmed negative.
TABLE 4 provides the results of single peptides which were individually evaluated in identifying known HIV-2 positive sera.
Each well of the microtiter plate is saturated with 100 μl of a solution containing a peptide or mixture of peptides (5 μg/ml) and left overnight. The wells are emptied and washed twice with a washing buffer (Tris, 0.043M; NaCl, 0.5M;thimerosal, 0.01% w/v; Tween 20, 0.05% v/v; pH 7.4). The wells are then saturated with 0.35 ml of washing buffer for 1 hr. at 37° C. and washed once with the same buffer. Serum samples to be analyzed are diluted with specimen buffer (washing buffer plus casein, 0.05% w/v). The wells are rinsed with washing buffer prior to the addition of the diluted serum sample (0.1 ml). These are left to incubate for 1 hr. at room temperature. The wells are then emptied, washed twice rapidly and then once for two minutes with washing buffer. […] The wells are then emptied and washed twice rapidly with washing buffer and then five times in which the buffer was in contact with the well 2 minutes per washing.
The substrate solution (3,3', 5,5'-tetramethylbenzidine, 8 mg per ml of DMSO) is diluted with 100 volumes 0.1M citrate-acetate buffer, pH 5.6 containing 0.1% v/v of 30% H2 O2 and added to each well (0.1 ml per well). After 10 minutes the contents of each well is treated with 0.1 ml 2N H2 SO4 and the optical density read at 450 nm. All determinations are done in duplicate.

Compound | % Positive Sera correctly Identified [2] [%] | also measured
7-mer peptide: SGKLIC with a cysteine residue added to the N-terminus (605-611), Gnann et al. |  | sensitivity [1]: 48%
CC[C@H](C)[C@H](NC(=O)[C@H](C)NC(=O)[C@@H](NC(=O)[C@@H](NC(=O)[C@@H](N)CCCNC(=N)N)C(C)C)[C@@H](C)O)C(=O)N[C@@H](CCC(=O)O)C(=O)N[C@@H](CCCCN)C(=O)N[C@@H](Cc1ccc(O)cc1)C(=O)N[C@@H](CC(C)C)C(=O)N[C@@H](CCC(N)=O)C(=O)N[C@@H](CC(=O)O)C(=O)N[C@@H](CCC(N)=O)C(=O)N[C@@H](C)C(=O)N[C@@H](CCCNC(=N)N)C(=O)N[C@@H](CC(C)C)C(=O)N[C@@H](CC(N)=O)C(=O)N[C@@H](CO)C(=O)N[C@@H](Cc1c[nH]c2ccccc12)C(=O)NCC(=O)N[C@H]1CSSC[C@@H](C(N)=O)NC(=O)[C@H](C(C)C)NC(=O)[C@H](CCC(N)=O)NC(=O)[C@H](CCCNC(=N)N)NC(=O)[C@H](Cc2ccccc2)NC(=O)[C@H](C)NC1=O [Peptide 146] | 100 | 
CC(C)C[C@H](NC(=O)[C@H](CCCNC(=N)N)NC(=O)[C@H](C)NC(=O)[C@H](CCC(N)=O)NC(=O)[C@H](CC(=O)O)NC(=O)[C@@H](N)CCC(N)=O)C(=O)N[C@@H](CC(N)=O)C(=O)N[C@@H](CO)C(=O)N[C@@H](Cc1c[nH]c2ccccc12)C(=O)NCC(=O)N[C@H]1CSSC[C@@H](C(=O)N[C@@H](Cc2c[nH]cn2)C(=O)N[C@H](C(=O)N[C@H](C(=O)N[C@H](C(=O)N2CCC[C@H]2C(=O)N[C@@H](Cc2c[nH]c3ccccc23)C(=O)N[C@H](C(=O)N[C@@H](CC(N)=O)C(=O)N[C@@H](CC(=O)O)C(=O)N[C@@H](CO)C(N)=O)C(C)C)C(C)C)[C@@H](C)O)[C@@H](C)O)NC(=O)[C@H](C(C)C)NC(=O)[C@H](CCC(N)=O)NC(=O)[C@H](CCCNC(=N)N)NC(=O)[C@H](Cc2ccccc2)NC(=O)[C@H](C)NC1=O [Peptide 147] | 100 | 
CC(=O)N[C@@H](CCC(N)=O)C(=O)N[C@@H](CC(=O)O)C(=O)N[C@@H](CCC(N)=O)C(=O)N[C@@H](C)C(=O)N[C@@H](CCCNC(=N)N)C(=O)N[C@@H](CC(C)C)C(=O)N[C@@H](CC(N)=O)C(=O)N[C@@H](CO)C(=O)N[C@@H](Cc1c[nH]c2ccccc12)C(=O)NCC(=O)N[C@H]1CSSC[C@@H](C(N)=O)NC(=O)[C@H](C(C)C)NC(=O)[C@H](CCC(N)=O)NC(=O)[C@H](CCCNC(=N)N)NC(=O)[C@H](Cc2ccccc2)NC(=O)[C@H](C)NC1=O [Peptide 200] | 100 | 
CC(C)[C@@H]1NC(=O)[C@H](CCC(N)=O)NC(=O)[C@H](CCCNC(=N)N)NC(=O)[C@H](Cc2ccccc2)NC(=O)[C@H](C)NC(=O)[C@@H](NC(=O)CN)CSSC[C@@H](C(=O)N[C@@H](Cc2c[nH]cn2)C(=O)N[C@H](C(=O)N[C@H](C(=O)N[C@H](C(=O)N2CCC[C@H]2C(=O)N[C@@H](Cc2c[nH]c3ccccc23)C(=O)N[C@H](C(=O)N[C@@H](CC(N)=O)C(=O)N[C@@H](CC(=O)O)C(=O)N[C@@H](CO)C(=O)O)C(C)C)C(C)C)[C@@H](C)O)[C@@H](C)O)NC1=O [Peptide 201] | 100 | 
CC[C@H](C)[C@H](NC(=O)[C@H](C)NC(=O)[C@@H](NC(=O)[C@@H](NC(=O)[C@@H](N)CCCNC(=N)N)C(C)C)[C@@H](C)O)C(=O)N[C@@H](CCC(=O)O)C(=O)N[C@@H](CCCCN)C(=O)N[C@@H](Cc1ccc(O)cc1)C(=O)N[C@@H](CC(C)C)C(=O)N[C@@H](CCC(N)=O)C(=O)N[C@@H](CC(=O)O)C(=O)N[C@@H](CCC(N)=O)C(=O)N[C@@H](C)C(=O)N[C@@H](CCCNC(=N)N)C(=O)N[C@@H](CC(C)C)C(=O)N[C@@H](CC(N)=O)C(=O)N[C@@H](CO)C(=O)N[C@@H](Cc1c[nH]c2ccccc12)C(=O)NCC(=O)N[C@H]1CSSC[C@@H](C(=O)N[C@@H](Cc2c[nH]cn2)C(=O)N[C@H](C(=O)N[C@H](C(=O)N[C@H](C(=O)N2CCC[C@H]2C(=O)N[C@@H](Cc2c[nH]c3ccccc23)C(=O)N[C@H](C(=O)N[C@@H](CC(N)=O)C(=O)N[C@@H](CC(=O)O)C(=O)N[C@@H](CO)C(=O)O)C(C)C)C(C)C)[C@@H](C)O)[C@@H](C)O)NC(=O)[C@H](C(C)C)NC(=O)[C@H](CCC(N)=O)NC(=O)[C@H](CCCNC(=N)N)NC(=O)[C@H](Cc2ccccc2)NC(=O)[C@H](C)NC1=O [Peptide 202] | 100 | 
CC[C@H](C)[C@H](NC(=O)[C@H](CCC(=O)O)NC(=O)[C@@H](NC(=O)[C@@H](N)CC(C)C)C(C)C)C(=O)N[C@H](C(=O)N1CCC[C@H]1C(=O)N[C@H](C(=O)NCC(=O)N[C@@H](Cc1ccccc1)C(=O)N[C@@H](C)C(=O)N1CCC[C@H]1C(=O)N[C@H](C(=O)N[C@@H](CCCCN)C(=O)N[C@@H](CCC(=O)O)C(=O)N[C@@H](CCCCN)C(=O)N[C@@H](CCCNC(=N)N)C(=O)N[C@@H](Cc1ccc(O)cc1)C(=O)N[C@@H](CO)C(=O)N[C@@H](CO)C(=O)N[C@@H](C)C(=O)N[C@@H](Cc1c[nH]cn1)C(=O)NCC(=O)N[C@@H](CCCNC(=N)N)C(=O)O)[C@@H](C)O)[C@@H](C)CC)[C@@H](C)O [Peptide 203] | 100 | 
CC[C@H](C)[C@H](NC(=O)[C@H](CCC(=O)O)NC(=O)[C@@H](NC(=O)[C@@H](N)CC(C)C)C(C)C)C(=O)N[C@H](C(=O)N1CCC[C@H]1C(=O)N[C@H](C(=O)NCC(=O)N[C@@H](Cc1ccccc1)C(=O)N[C@@H](C)C(=O)N1CCC[C@H]1C(=O)N[C@H](C(=O)N[C@@H](CCCCN)C(=O)N[C@@H](CCC(=O)O)C(=O)N[C@@H](CCCCN)C(=O)N[C@@H](CCCNC(=N)N)C(=O)O)[C@@H](C)O)[C@@H](C)CC)[C@@H](C)O [Peptide 204] | 100 | 
SGKLIC |  | immunoreactivity with HIV-1 positive sera ([1]; 22 HIV-1 positive sera tested, Gnann et al.): not immunoreactive
SGKLICTTAVPWNAS [short synthetic peptide covering residues 606 to 620 of gp41 (HIV-1), U.S. Ser. No. 120,027] |  | sensitivity [1]: 89%; specificity (samples correctly identified) ([1]; U.S. Ser. No. 120,027): 63/63
